The results in this text go back to patent US20250361230A1, “LATS Inhibitors and Uses Thereof” (The USA, as Represented by the Secretary, Dept. of Heath …, priority 2022, published 2025).

What all share (assay type): biochemical
For assay [1], the target named is T1, LATS2 (Homo sapiens, UniProt Q9NRM7).
T1 sequence (Q9NRM7 1-1088): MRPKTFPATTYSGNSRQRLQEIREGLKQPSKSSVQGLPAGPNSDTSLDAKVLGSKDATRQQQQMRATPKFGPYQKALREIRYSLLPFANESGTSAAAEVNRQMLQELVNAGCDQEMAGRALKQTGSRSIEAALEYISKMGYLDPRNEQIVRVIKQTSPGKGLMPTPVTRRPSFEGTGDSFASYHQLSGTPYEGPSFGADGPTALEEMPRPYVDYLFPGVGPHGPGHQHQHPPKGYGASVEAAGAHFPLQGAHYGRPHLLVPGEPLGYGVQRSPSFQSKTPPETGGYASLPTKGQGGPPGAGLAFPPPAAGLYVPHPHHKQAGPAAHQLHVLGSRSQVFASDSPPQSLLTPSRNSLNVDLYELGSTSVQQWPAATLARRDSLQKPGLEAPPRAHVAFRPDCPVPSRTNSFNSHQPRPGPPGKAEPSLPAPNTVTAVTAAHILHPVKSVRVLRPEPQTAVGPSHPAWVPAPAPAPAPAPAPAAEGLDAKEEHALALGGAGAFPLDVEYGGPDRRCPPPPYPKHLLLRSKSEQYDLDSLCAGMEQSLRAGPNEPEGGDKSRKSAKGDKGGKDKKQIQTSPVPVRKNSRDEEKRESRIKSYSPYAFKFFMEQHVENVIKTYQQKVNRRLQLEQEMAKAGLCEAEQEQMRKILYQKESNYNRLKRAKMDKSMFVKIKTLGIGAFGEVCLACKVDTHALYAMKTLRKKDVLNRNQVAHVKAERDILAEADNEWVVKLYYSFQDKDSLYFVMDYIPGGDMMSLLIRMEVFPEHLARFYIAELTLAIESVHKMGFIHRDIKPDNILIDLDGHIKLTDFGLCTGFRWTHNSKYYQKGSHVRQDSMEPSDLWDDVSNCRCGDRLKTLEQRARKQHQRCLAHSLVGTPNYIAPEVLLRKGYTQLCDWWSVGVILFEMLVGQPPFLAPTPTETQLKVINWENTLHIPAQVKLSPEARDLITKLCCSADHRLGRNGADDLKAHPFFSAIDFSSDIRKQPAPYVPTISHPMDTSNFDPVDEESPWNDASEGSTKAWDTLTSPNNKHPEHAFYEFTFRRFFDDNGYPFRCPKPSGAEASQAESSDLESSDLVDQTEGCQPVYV
Kind of assay: RBC HotSpot kinase assay (33P-ATP, P81 filter-binding), LATS2. In a few lines:
(§1)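 Substrate in fresh buffer receives cofactors, then kinase, then compound in DMSO for a 20 min room-temperature preincubation. Reactions start with 33P-ATP and run 2 h; phosphorylation is read by P81 filter binding, and IC50 comes from a 10-point curve.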

Assay [2] addresses AKT (Homo sapiens, UniProt P31749). Kind of assay: RBC HotSpot kinase assay (33P-ATP, P81 filter-binding), AKT. In a few lines:
as §1

Assay [3] has as its target T2, LATS1 (Homo sapiens, UniProt O95835).
T2 sequence (O95835 1-1130): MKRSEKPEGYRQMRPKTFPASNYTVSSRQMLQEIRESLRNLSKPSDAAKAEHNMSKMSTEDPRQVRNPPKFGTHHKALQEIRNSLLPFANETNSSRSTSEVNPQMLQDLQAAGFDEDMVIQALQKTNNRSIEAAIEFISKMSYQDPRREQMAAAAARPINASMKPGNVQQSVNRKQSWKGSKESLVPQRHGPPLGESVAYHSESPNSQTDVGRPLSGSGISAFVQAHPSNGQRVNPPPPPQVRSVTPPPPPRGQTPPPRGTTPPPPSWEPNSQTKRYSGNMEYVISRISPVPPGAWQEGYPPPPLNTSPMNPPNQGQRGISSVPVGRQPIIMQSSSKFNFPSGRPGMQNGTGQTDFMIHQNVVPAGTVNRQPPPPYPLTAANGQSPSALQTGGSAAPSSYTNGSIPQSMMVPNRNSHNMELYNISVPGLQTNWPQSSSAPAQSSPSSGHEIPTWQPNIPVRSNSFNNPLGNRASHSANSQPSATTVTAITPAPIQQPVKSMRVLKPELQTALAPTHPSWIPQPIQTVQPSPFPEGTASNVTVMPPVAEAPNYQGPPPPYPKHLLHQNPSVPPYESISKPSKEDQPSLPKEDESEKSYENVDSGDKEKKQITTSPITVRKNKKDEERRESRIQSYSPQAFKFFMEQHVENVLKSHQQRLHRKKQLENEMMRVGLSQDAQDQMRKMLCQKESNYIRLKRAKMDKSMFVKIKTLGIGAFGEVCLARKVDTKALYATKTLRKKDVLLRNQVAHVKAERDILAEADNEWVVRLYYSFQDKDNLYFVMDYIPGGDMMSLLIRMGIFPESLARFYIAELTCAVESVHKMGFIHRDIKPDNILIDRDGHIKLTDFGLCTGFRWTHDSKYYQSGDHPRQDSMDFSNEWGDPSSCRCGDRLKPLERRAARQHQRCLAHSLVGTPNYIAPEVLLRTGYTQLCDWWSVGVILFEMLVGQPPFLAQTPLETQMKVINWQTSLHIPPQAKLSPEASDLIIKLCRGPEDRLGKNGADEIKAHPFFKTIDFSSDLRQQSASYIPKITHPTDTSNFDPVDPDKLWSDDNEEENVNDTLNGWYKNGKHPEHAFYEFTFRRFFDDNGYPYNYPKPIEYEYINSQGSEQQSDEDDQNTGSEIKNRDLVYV
Kind of assay: RBC HotSpot kinase assay (33P-ATP, P81 filter-binding), LATS1. In a few lines: as §1

Where [4] appears, read: Table 28, biochemical kinase assay, read-out: LATS2 IC50.
[5] abbreviates: Table 28, biochemical kinase assay, read-out: AKT IC50.
The mark [6] stands for this setting: Table 28, biochemical kinase assay, read-out: LATS1 IC50.

The structures appear in SMILES notation. Where two headings read alike, the source gives them in different places.

AKT, sequence (P31749 whole entry): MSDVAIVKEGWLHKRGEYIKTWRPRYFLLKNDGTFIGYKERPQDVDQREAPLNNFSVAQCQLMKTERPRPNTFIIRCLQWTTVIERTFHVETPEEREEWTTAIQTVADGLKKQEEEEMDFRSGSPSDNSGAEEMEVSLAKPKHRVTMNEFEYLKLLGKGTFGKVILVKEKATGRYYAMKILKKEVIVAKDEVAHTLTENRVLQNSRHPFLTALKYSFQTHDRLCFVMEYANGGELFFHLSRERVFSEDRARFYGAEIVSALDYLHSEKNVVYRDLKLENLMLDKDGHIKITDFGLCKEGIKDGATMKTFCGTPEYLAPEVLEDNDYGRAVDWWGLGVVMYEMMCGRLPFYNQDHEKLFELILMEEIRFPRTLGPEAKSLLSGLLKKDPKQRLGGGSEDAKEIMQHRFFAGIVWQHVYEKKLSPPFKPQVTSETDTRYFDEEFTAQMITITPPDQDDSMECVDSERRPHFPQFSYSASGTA

For the molecule `Cc1nc(-c2ccnc3[nH]cc(F)c23)ccc1C1(O)CCNCC1` [Compound 104, 4-(6-(3-fluoro-1H-pyrrolo[2,3-b]pyridin-4-yl)-2-methylpyridin-3-yl)piperidin-4-ol], the IC50 – broadly, the midpoint of a concentration-inhibition curve – in assay [1] (setting [4]) came out at 326 nM; in assay [2] (setting [5]), 6580 nM; in assay [3] (setting [6]) it was 145 nM.
Consider `OC1(c2ccc(-c3ccnc4[nH]cc(F)c34)cc2Cl)CNC1` [Compound 105, 3-(2-chloro-4-(3-fluoro-1H-pyrrolo[2,3-b]pyridin-4-yl)phenyl)azetidin-3-ol], for which the IC50 turned out to be 14 nM in assay [1] (setting [4]), 828 nM in assay [2] (setting [5]) and 16 nM in assay [3] (setting [6]).
The like results for `COC(=O)c1c[nH]c2nccc(-c3ccc(C4(O)CNC4)c(Cl)c3)c12` [Compound 106, methyl 4-(3-chloro-4-(3-hydroxyazetidin-3-yl)phenyl)-1H-pyrrolo[2,3-b]pyridine-3-carboxylate] were, in that order, 110 nM, 885 nM and 18.2 nM.
As to `Cc1nc(-c2ccnc3[nH]cc(F)c23)ccc1C1(O)CC2(CNC2)C1` [Compound 107, 6-(6-(3-fluoro-1H-pyrrolo[2,3-b]pyridin-4-yl)-2-methylpyridin-3-yl)-2-azaspiro[3.3]heptan-6-ol], the IC50 in assay [1] (setting [4]) was 661 nM; in assay [2] (setting [5]) it was above 10000 nM; in assay [3] (setting [6]), 473 nM.
Consider `Cc1cc(-c2ccnc3[nH]cc(F)c23)cc(F)c1C1(O)CC2(CNC2)C1` [Compound 108, 6-(2-fluoro-4-(3-fluoro-1H-pyrrolo[2,3-b]pyridin-4-yl)-6-methylphenyl)-2-azaspiro[3.3]heptan-6-ol], for which the values for the IC50 in assay [1] (setting [4]), in assay [2] (setting [5]) and in assay [3] (setting [6]) were 24.8 nM, 1270 nM and 17.4 nM, respectively.
Taken in the same sequence, the figures for `OC1(c2c(F)cc(-c3ccnc4[nH]cc(F)c34)cc2F)CC2(CNC2)C1` [Compound 109, 6-(2,6-difluoro-4-(3-fluoro-1H-pyrrolo[2,3-b]pyridin-4-yl)phenyl)-2-azaspiro[3.3]heptan-6-ol] were 61 nM, 2980 nM and 46 nM.
On to `COC(=O)c1c[nH]c2nccc(-c3ccc(C4(O)CCNCC4)cc3)c12` [Compound 112, methyl 4-(4-(4-hydroxypiperidin-4-yl)phenyl)-1H-pyrrolo[2,3-b]pyridine-3-carboxylate], for which the IC50 in assay [1] (setting [4]) came out at 18 nM; in assay [2] (setting [5]) it was 2330 nM; in assay [3] (setting [6]), 9.2 nM.
Take `COC(=O)c1c[nH]c2nccc(-c3ccc(C4(O)C[C@H]5CC[C@@H](C4)N5)cc3)c12` (stereo partly drawn) [Compound 113, methyl 4-(4-((1R,5S)-3-hydroxy-8-azabicyclo[3.2.1]octan-3-yl)phenyl)-1H-pyrrolo[2,3-b]pyridine-3-carboxylate]: the IC50 was determined as 65.5 nM in assay [1] (setting [4]), 1060 nM in assay [2] (setting [5]) and 12.4 nM in assay [3] (setting [6]).
As to `OC1(c2ccc(-c3ccnc4[nH]cc(F)c34)cc2)C[C@H]2CC[C@@H](C1)N2` (stereo partly drawn) [Compound 114, (1R,5S)-3-(4-(3-fluoro-1H-pyrrolo[2,3-b]pyridin-4-yl)phenyl)-8-azabicyclo[3.2.1]octan-3-ol], the IC50 in assay [1] (setting [4]) came to 19 nM; in assay [2] (setting [5]), 390 nM; in assay [3] (setting [6]), 23 nM.
The like results for `OC1(c2ccc(-c3ccnc4[nH]ccc34)cc2)C[C@H]2CC[C@@H](C1)N2` (stereo partly drawn) [Compound 115, (1R,5S)-3-(4-(1H-pyrrolo[2,3-b]pyridin-4-yl)phenyl)-8-azabicyclo[3.2.1]octan-3-ol] were, in that order, 10 nM, 176 nM and 7.2 nM.
As to `OC1(c2ccc(-c3ccnc4[nH]cc(F)c34)cc2)CNC1` [Compound 116, 3-(4-(3-fluoro-1H-pyrrolo[2,3-b]pyridin-4-yl)phenyl)azetidin-3-ol], the IC50 in assay [1] (setting [4]) is 16.7 nM; in assay [2] (setting [5]), 468 nM; in assay [3] (setting [6]), 9.2 nM.
For the molecule `OC1(c2ccc(-c3ccnc4[nH]cc(Br)c34)cc2)CCNCC1` [Compound 117, 4-(4-(3-bromo-1H-pyrrolo[2,3-b]pyridin-4-yl)phenyl)piperidin-4-ol], the results for the IC50 in assay [1] (setting [4]), in assay [2] (setting [5]) and in assay [3] (setting [6]) were 3.2 nM, 240 nM and 4.2 nM, respectively.
`OC1(c2ccc(-c3ccnc4[nH]cc(Br)c34)cc2)C[C@H]2CC[C@@H](C1)N2` (stereo partly drawn) [Compound 118, (1R,5S)-3-(4-(3-bromo-1H-pyrrolo[2,3-b]pyridin-4-yl)phenyl)-8-azabicyclo[3.2.1]octan-3-ol]: the IC50 in assay [1] (setting [4]) is 0.9 nM; in assay [2] (setting [5]), 14 nM; in assay [3] (setting [6]) it was 1.8 nM.
Consider `OC1(c2ccc(-c3ccnc4[nH]cc(Br)c34)nc2)C[C@H]2CC[C@@H](C1)N2` (stereo partly drawn) [Compound 119, (1R,5S)-3-(6-(3-bromo-1H-pyrrolo[2,3-b]pyridin-4-yl)pyridin-3-yl)-8-azabicyclo[3.2.1]octan-3-ol], for which the IC50 in assay [1] amounted to 184 nM; in assay [2], 2590 nM; in assay [3], 29.8 nM.
Consider `CC1CC(O)(c2ccc(-c3ccnc4[nH]cc(Br)c34)cc2Cl)CC(C)N1` (stereo not drawn) [Compound 120, 4-(4-(3-bromo-1H-pyrrolo[2,3-b]pyridin-4-yl)-2-chlorophenyl)-2,6-dimethylpiperidin-4-ol], for which the results for the IC50 in assay [1] (setting [4]), in assay [2] (setting [5]) and in assay [3] (setting [6]) were 30 nM, 103 nM and 58 nM, respectively.
With `OC1(c2ccc(-c3ccnc4[nH]cc(Br)c34)cc2Cl)C2CNCC1C2` (stereo not drawn) [Compound 121, 6-(4-(3-bromo-1H-pyrrolo[2,3-b]pyridin-4-yl)-2-chlorophenyl)-3-azabicyclo[3.1.1]heptan-6-ol], the IC50 in assay [1] (setting [4]) was 14.6 nM; in assay [2] (setting [5]), 307 nM; in assay [3] (setting [6]), 10.2 nM.
As for `OC1(c2ccc(-c3ccnc4[nH]cc(Br)c34)cc2Cl)C[C@H]2CC[C@@H](C1)N2` (stereo partly drawn) [Compound 122, (1R,5S)-3-(4-(3-bromo-1H-pyrrolo[2,3-b]pyridin-4-yl)-2-chlorophenyl)-8-azabicyclo[3.2.1]octan-3-ol], the IC50 amounted to 8.9 nM in assay [1] (setting [4]), 51.2 nM in assay [2] (setting [5]) and 5.3 nM in assay [3] (setting [6]).
`OC1(c2ccc(-c3ccnc4[nH]cc(Br)c34)cc2Cl)CNC1` [Compound 123, 3-(4-(3-bromo-1H-pyrrolo[2,3-b]pyridin-4-yl)-2-chlorophenyl)azetidin-3-ol]: the IC50 came out at 7 nM in assay [1] (setting [4]), 158 nM in assay [2] (setting [5]) and 12 nM in assay [3] (setting [6]).
